In patent US20040156869A1, “2-substituted quinazolin-4-ylamine analogues” (Neurogen Corporation, priority 2002, published 2004):
pKi: −log10 of the molar value.

Target: human capsaicin receptor (VR1) (Homo sapiens, UniProt Q8NER1)
Assay: Capsaicin receptor binding assay ([3H]RTX competition, VR1-transfected HEK293 membranes)
Details: not given

Chain of human capsaicin receptor (VR1) (Q8NER1 whole entry): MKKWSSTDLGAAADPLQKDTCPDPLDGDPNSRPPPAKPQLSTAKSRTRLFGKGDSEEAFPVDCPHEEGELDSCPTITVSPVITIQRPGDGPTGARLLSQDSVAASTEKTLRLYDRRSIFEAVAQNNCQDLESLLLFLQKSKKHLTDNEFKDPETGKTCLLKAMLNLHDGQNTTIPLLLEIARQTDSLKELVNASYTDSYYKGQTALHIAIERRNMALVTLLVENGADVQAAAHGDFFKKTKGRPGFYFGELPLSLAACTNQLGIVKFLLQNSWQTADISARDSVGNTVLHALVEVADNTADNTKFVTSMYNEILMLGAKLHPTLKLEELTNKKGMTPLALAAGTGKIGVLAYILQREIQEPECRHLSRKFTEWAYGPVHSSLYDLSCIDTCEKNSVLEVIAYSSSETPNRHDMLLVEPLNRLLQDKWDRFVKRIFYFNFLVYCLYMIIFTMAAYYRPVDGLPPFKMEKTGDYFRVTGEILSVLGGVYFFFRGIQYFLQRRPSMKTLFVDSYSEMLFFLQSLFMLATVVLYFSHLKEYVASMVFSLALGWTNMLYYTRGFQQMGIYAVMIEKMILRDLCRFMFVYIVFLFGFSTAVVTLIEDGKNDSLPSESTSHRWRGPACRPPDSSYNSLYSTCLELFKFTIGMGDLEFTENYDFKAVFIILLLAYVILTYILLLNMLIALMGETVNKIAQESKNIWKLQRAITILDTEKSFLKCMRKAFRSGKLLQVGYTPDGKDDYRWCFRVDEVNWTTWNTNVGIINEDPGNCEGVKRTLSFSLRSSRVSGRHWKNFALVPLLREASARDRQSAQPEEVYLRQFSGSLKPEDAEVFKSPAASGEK

SMILES	pKi
CC(C)(C)c1ccc(Nc2nc(CN3CCC[C@H]3C(=O)O)nc3nc(-c4ncccc4C(F)(F)F)ccc23)cc1 [Compound 758, (S)-1-[4-(4-tert-Butyl-phenylamino)-7-(3-trifluoromethyl-pyridin-2-yl)-pyrido[2,3-d]pyrimidin-2-ylmethyl]-pyrrolidine-2-carboxylic acid]	> 6.00
COCc1nc(Nc2ccc(C(C)C)cc2)c2ccc(-c3ncccc3Cl)nc2n1 [Compound 60, [7-(3-Chloro-pyridin-2-yl)-2-methoxymethyl-pyrido[2,3-d]pyrimidin-4-yl]-(4-isopropyl-phenyl)-amine]	> 6.00
CC1CN(Cc2nc(Nc3ccc(C(F)(F)F)cc3)c3ccc(-c4ncccc4Cl)cc3n2)CC(C)N1 (stereo not shown) [Compound 634, [7-(3-Chloro-pyridin-2-yl)-2-(3,5-dimethyl-piperazin-1-ylmethyl)-quinazolin-4-yl]-(4-trifluoromethyl-phenyl)-amine]	> 6.00
CCOC(=O)COCc1nc(Nc2ccc(C(F)(F)F)cc2)c2ccc(-c3ncccc3C(F)(F)F)cc2n1 [Compound 169, [4-(4-Trifluoromethyl-phenylamino)-7-(3-trifluoromethyl-pyridin-2-yl)-quinazolin-2-ylmethoxy]-acetic acid ethyl ester]	> 6.00
CCOCc1nc(Nc2ccc(C(F)(F)F)cc2)c2ccc(-c3ncccc3Cl)cc2n1 [Compound 81, [7-(3-Chloro-pyridin-2-yl)-2-ethoxymethyl-quinazolin-4-yl]-(4-trifluoromethyl-phenyl)-amine]	> 6.00
CC(c1ccc(Nc2nc(CN3CCN(C)CC3)nc3cc(-c4ncccc4C(F)(F)F)ccc23)cc1)C(F)(F)F (stereo not shown) [Compound 526, [2-(4-Methyl-piperazin-1-ylmethyl)-7-(3-trifluoromethyl-pyridin-2-yl)-quinazolin-4-yl]-[4-(2,2,2-trifluoro-1-methyl-ethyl)-phenyl]-amine]	> 6.00
FC(F)(F)c1ccc(Nc2nc(CN3CCCCCC3)nc3cc(-c4ncccc4C(F)(F)F)cnc23)cc1 [Compound 659, [2-Azepan-1-ylmethyl-7-(3-trifluoromethyl-pyridin-2-yl)-pyrido[3,2-d]pyrimidin-4-yl]-(4-trifluoromethyl-phenyl)-amine]	> 6.00
CC(C)c1ccc(Nc2nc(CN3CCO[C@H](C)C3)nc3cc(-c4ncccc4C(F)(F)F)ccc23)cc1 [Compound 684, (R)-(4-Isopropyl-phenyl)-[2-(2-methyl-morpholin-4-ylmethyl)-7-(3-trifluoromethyl-pyridin-2-yl)-quinazolin-4-yl]-amine]	> 6.00
C[C@@H]1CN(Cc2nc(Nc3ccc(C(C)(C)C)cc3)c3cnc(-c4ccccc4C(F)(F)F)cc3n2)C[C@H](C)O1 [Compound 614, (4-tert-Butyl-phenyl)-[2-(2,6-dimethyl-morpholin-4-ylmethyl)-7-(2-trifluoromethyl-phenyl)-pyrido[4,3-d]pyrimidin-4-yl]-amine (cis)]	> 6.00
CC1CCCN(CCc2nc(Nc3ccc(C(F)(F)F)cc3)c3ccc(-c4ncccc4C(F)(F)F)cc3n2)C1 (stereo not shown) [Compound 587, [2-(3-Methyl-piperidin-1-ylethyl)-7-(3-trifluoromethyl-pyridin-2-yl)-quinazolin-4-yl]-(4-trifluoromethyl-phenyl)-amine]	> 6.00
CN(C)CCCOCc1nc(Nc2ccc(C(C)(C)C)cc2)c2ccc(-c3ncccc3C(F)(F)F)cc2n1 [Compound 116, (4-tert-Butyl-phenyl)-[2-(3-dimethylamino-propoxymethyl)-7-(3-trifluoromethyl-pyridin-2-yl)-quinazolin-4-yl]-amine]	> 6.00
CC(C)S(=O)(=O)c1ccc(Nc2nc(CN3C[C@H](C)O[C@@H](C)C3)nc3cc(-c4ncccc4C(F)(F)F)ccc23)cc1 [Compound 643, (S,S)-[2-(2,6-Dimethyl-morpholin-4-ylmethyl)-7-(3-trifluoromethyl-pyridin-2-yl)-quinazolin-4-yl]-[4-(propane-2-sulfonyl)-phenyl]-amine]	> 6.00
COCc1nc(Nc2ccc(C(F)(F)F)nc2)c2ccc(-c3ncccc3C(F)(F)F)nc2n1 [Compound 147, [2-Methoxymethyl-7-(3-trifluoromethyl-pyridin-2-yl)-pyrido[2,3-d]pyrimidin-4-yl]-(6-trifluoromethyl-pyridin-3-yl)-amine]	> 6.00
CCCN(CCO)Cc1nc(Nc2ccc(C(C)(C)C)cc2)c2ccc(-c3ncccc3C(F)(F)F)cc2n1 [Compound 754, 2-{[4-(4-tert-Butyl-phenylamino)-7-(3-trifluoromethyl-pyridin-2-yl)-quinazolin-2-ylmethyl]-propyl-amino}-ethanol]	> 6.00
CN(CCc1nc(Nc2ccc(C(F)(F)F)cc2)c2ccc(-c3ncccc3C(F)(F)F)cc2n1)C1CCCCC1 [Compound 424, [2-[(Cyclohexyl-methyl-amino)-ethyl]-7-(3-trifluoromethyl-pyridin-2-yl)-quinazolin-4-yl]-(4-trifluoromethyl-phenyl)-amine]	> 6.00
C[C@H]1CN(Cc2nc(Nc3ccc(C(C)(C)C)cc3)c3ccc(-c4ncccc4Cl)cc3n2)CCO1 [Compound 647, (S)-(4-tert-Butyl-phenyl)-[7-(3-chloro-pyridin-2-yl)-2-(2-methyl-morpholin-4-ylmethyl)-quinazolin-4-yl]-amine]	> 6.00
CCCC(=O)c1ccc(Nc2nc(COC)nc3cc(-c4ncccc4C(F)(F)F)cnc23)cc1 [Compound 57, 1-{4-[2-Methoxymethyl-7-(3-trifluoromethyl-pyridin-2-yl)-pyrido[3,2-d]pyrimidin-4-ylamino]-phenyl}-butan-1-one]	> 6.00
Cc1cccnc1-c1ccc2c(Nc3ccc(C(F)(F)F)cc3)nc(CO)nc2n1 [Compound 119, [7-(3-Methyl-pyridin-2-yl)-4-(4-trifluoromethyl-phenylamino)-pyrido[2,3-d]pyrimidin-2-yl]-methanol]	> 6.00
Cc1ccc(Nc2nc(COCC(C)C)nc3nc(-c4ncccc4C(F)(F)F)ccc23)cc1C [Compound 257, (3,4-Dimethyl-phenyl)-[2-isobutoxymethyl-7-(3-trifluoromethyl-pyridin-2-yl)-pyrido[2,3-d]pyrimidin-4-yl]-amine]	> 6.00
CN(CCc1ccccc1)Cc1nc(Nc2ccc(C(F)(F)F)nc2)c2ccc(-c3ncccc3C(F)(F)F)cc2n1 [Compound 357, [2-[(Methyl-phenethyl-amino)-methyl]-7-(3-trifluoromethyl-pyridin-2-yl)-quinazolin-4-yl]-(6-trifluoromethyl-pyridin-3-yl)-amine]	> 6.00
O=C(O)CNC(=O)c1nc(Nc2ccc(C(F)(F)F)cc2)c2ccc(-c3ncccc3C(F)(F)F)nc2n1 [Compound 764, {[4-(4-Trifluoromethyl-phenylamino)-7-(3-trifluoromethyl-pyridrn-2-yl)-pyrido[2,3-d]pyrimidine-2-carbonyl]-amino}-acetic acid]	> 6.00
COCC(C)(C)c1ccc(Nc2nc(COCc3ccccc3)nc3cc(-c4ncccc4C(F)(F)F)ccc23)cc1 [Compound 42, [2-Benzyloxymethyl-7-(3-trifluoromethyl-pyridin-2-yl)-quinazolin-4-yl]-[4-(2-methoxy-1,1-dimethyl-ethyl)-phenyl]-amine]	> 6.00
CCCCCCN(CCCCCC)Cc1nc(Nc2ccc(C(F)(F)F)nc2)c2ccc(-c3ncccc3C(F)(F)F)cc2n1 [Compound 386, [2-Dihexylaminomethyl-7-(3-trifluoromethyl-pyridin-2-yl)-quinazolin-4-yl]-(6-trifluoromethyl-pyridin-3-yl)-amine]	> 6.00
C[C@H]1CN(Cc2nc(Nc3ccc(C(F)(F)F)cc3)c3ccc(-c4ncccc4C(F)(F)F)cc3n2)CCO1 [Compound 686, (S)-[2-(2-Methyl-morpholin-4-ylmethyl)-7-(3-trifluoromethyl-pyridin-2-yl)-quinazolin-4-yl]-(4-trifluoromethyl-phenyl)-amine]	> 6.00
OCc1nc(Nc2ccc(C(F)(F)F)cc2)c2ncc(-c3ncccc3C(F)(F)F)cc2n1 [Compound 121, [4-(4-Trifluoromethyl-phenylamino)-7-(3-trifluoromethyl-pyridin-2-yl)-pyrido[3,2-d]pyrimidin-2-yl]-methanol]	> 6.00
CNC(=O)c1nc(Nc2ccc(C(F)(F)F)cc2)c2ccc(-c3ncccc3C(F)(F)F)cc2n1 [Compound 708, 4-(4-Trifluoromethyl-phenylamino)-7-(3-trifluoromethyl-pyridin-2-yl)-quinazoline-2-carboxylic acid methylamide]	> 6.00
CCCCCCN(CCCCCC)Cc1nc(Nc2ccc(C(F)(F)F)cc2)c2ccc(-c3ncccc3C(F)(F)F)cc2n1 [Compound 346, [2-Dihexylaminomethyl-7-(3-trifluoromethyl-pyridin-2-yl)-quinazolin-4-yl]-(4-trifluoromethyl-phenyl)-amine]	> 6.00
C[C@@H]1CN(Cc2nc(Nc3ccc(C(F)(F)F)cc3)c3ccc(-c4ncccc4Cl)cc3n2)C[C@@H](C)O1 [Compound 606, (R,R)-[7-(3-Chloro-pyridin-2-yl)-2-(2,6-dimethyl-morpholin-4-ylmethyl)-quinazolin-4-yl]-(4-trifluoromethyl-phenyl)-amine]	> 6.00
CCOC(=O)Cc1nc(Nc2ccc(C(F)(F)F)cc2)c2ccc(-c3ncccc3C(F)(F)F)cc2n1 [Compound 20, [4-(4-Trifluoromethyl-phenylamino)-7-(3-trifluoromethyl-pyridin-2-yl)-quinazolin-2-yl]-acetic acid ethyl ester]	> 6.00
CNC(=O)c1nc(Nc2ccc(C(F)(F)F)cc2)c2ccc(-c3ncccc3C(F)(F)F)nc2n1 [Compound 449, 4-(4-Trifluoromethyl-phenylamino)-7-(3-trifluoromethyl-pyridin-2-yl)-pyrido[2,3-d]pyrimidine-2-carboxylic acid methylamide]	> 6.00

Same assay, conditions: Table III; capsaicin receptor binding

SMILES	pKi
CC1CN(Cc2nc(Nc3ccc(C(C)(C)C)cc3)c3ncc(-c4ncccc4C(F)(F)F)cc3n2)CC(C)O1 (stereo not drawn) [Compound 583, (4-tert-Butyl-phenyl)-[2-(2,6-dimethyl-morpholin-4-ylmethyl)-7-(3-trifluoromethyl-pyridin-2-yl)-pyrido[3,2-d]pyrimidin-4-yl]-amine (cis)]	> 6.00
